# Reference: patent US8513271B2, “Pyrimidine compounds as delta opioid receptor modulators” (Janssen Pharmaceutica, NV, priority 2009, dated 2013)
# Read-outs that look alike come from different tables or passages of the source.
# Tests used:
# delta opioid receptor [1] = biological target: T1, delta opioid receptor (Mus musculus, UniProt P32300); experiment: NG108-15, 24-well delta opioid receptor binding assay
# T1 construct: NG108-15 cell membranes were purchased from Applied Cell Sciences (Rockville, Md.); host or cells: NG108-15 cell membranes
# T1 sequence (P32300 whole entry): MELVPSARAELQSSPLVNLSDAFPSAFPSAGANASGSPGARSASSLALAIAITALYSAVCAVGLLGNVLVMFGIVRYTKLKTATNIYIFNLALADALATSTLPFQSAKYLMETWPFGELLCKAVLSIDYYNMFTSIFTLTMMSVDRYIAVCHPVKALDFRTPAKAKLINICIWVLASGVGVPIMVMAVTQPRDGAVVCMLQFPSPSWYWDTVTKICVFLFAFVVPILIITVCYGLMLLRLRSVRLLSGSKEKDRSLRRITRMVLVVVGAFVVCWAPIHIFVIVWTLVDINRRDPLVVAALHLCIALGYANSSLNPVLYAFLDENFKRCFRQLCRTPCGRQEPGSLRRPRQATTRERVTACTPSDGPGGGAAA
# mu opioid receptor = biological target: T2, mu opioid receptor (Rattus norvegicus, UniProt P33535); experiment: Rat brain mu opioid receptor binding assay; settings: rat forebrain, [3H]DAMGO ligand
# T2 construct: the forebrains were homogenized in Tris buffer in a Teflon®-glass homogenizer; from tissue; host or cells: forebrain of male Wistar rats, particulate (membrane) preparation
# T2 sequence (P33535 whole entry): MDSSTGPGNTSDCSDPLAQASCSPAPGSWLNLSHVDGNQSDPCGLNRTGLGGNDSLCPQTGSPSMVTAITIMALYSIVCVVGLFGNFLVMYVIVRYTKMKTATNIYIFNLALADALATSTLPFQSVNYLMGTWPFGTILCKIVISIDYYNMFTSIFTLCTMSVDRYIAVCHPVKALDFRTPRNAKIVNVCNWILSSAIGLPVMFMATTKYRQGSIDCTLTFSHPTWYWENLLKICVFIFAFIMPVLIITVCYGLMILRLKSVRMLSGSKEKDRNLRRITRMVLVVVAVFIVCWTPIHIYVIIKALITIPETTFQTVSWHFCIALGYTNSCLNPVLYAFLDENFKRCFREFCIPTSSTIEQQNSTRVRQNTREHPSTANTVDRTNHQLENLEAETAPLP
# delta opioid receptor [2] = biological target: T1, delta opioid receptor; experiment: [35S]GTPγS binding assay in NG108-15 cell membranes (delta opioid functional assay), 200 nM screen; type: biochemical; settings: for EC50 / GTPγS δ-opioid receptor Rel Efficacy / GTPγS δ-RelEfficacy @200 nM: NG108-15 cell membranes; for EC50 / GTPγS δ-RelEfficacy @200 nM: averages if tested more than once; for GTPγS δ-opioid receptor Rel Efficacy: relative efficacy from dose response; for GTPγS δ-RelEfficacy @200 nM: 200 nM test compound, relative to calculated max of SNC80 dose response curve
# [3] = biological target: hMOR (mu opioid receptor) (Homo sapiens, UniProt P35372); experiment: [35S]GTPγS binding assays in CHO-hMOR cell membranes (mu opioid functional assay); type: biochemical; settings: for inhibition at 10 µM: read-out: GTPγS μ-opioid receptor % Inh @10 μM; for GTPγS μ-opioid receptor % Inh @10 μM: inhibition of agonist-stimulated GTPγS binding
# Chain of hMOR (mu opioid receptor) (P35372 whole entry, looked up): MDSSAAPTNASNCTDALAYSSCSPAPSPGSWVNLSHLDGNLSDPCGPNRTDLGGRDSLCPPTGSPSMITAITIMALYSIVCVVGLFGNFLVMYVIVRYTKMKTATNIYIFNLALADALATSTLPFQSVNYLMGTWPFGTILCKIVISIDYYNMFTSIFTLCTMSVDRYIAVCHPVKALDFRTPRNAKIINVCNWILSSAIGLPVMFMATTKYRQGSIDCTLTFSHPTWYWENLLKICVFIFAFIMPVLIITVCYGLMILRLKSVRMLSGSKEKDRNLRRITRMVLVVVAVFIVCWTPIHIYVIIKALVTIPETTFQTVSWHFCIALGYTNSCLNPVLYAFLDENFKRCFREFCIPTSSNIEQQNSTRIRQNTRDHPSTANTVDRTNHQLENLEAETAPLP
# delta opioid receptor [4] = biological target: T3, delta opioid receptor (Rattus norvegicus, UniProt P33533); experiment: Rat brain delta opioid receptor binding assay; settings: rat forebrain, [3H]naltrindole ligand; read-out: δ-binding (Naltrindole ligand) Ki
# T3 construct: the forebrains were homogenized in Tris buffer in a Teflon®-glass homogenizer; from tissue; host or cells: forebrain of male Wistar rats, particulate (membrane) preparation
# T3 sequence (P33533 whole entry): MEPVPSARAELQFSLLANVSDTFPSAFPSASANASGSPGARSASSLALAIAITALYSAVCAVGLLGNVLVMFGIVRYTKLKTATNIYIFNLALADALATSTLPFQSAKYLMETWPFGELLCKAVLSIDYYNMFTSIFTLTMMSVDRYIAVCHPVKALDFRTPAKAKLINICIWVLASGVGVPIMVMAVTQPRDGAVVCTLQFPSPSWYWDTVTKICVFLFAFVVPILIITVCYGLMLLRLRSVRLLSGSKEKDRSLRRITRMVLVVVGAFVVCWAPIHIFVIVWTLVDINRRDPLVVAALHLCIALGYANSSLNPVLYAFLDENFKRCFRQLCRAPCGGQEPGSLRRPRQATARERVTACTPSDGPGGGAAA
# [5] = GTPγS δ-opioid receptor EC50 (μM)
# [6] = [3H]Naltrindole ligand, NG108-15 cell membranes, read-out: δ-binding NG108 cell membrane Ki
# [7] = read-out: GTPγS δ-opioid receptor EC50
Structure (SMILES),EC50 (delta opioid receptor [2]; [5]) [µM],GTPγS δ-opioid receptor Rel Efficacy (delta opioid receptor [2]),inhibition at 10 µM [3] [%],GTPγS δ-RelEfficacy @200 nM (delta opioid receptor [2]),Ki (delta opioid receptor [1]; [6]) [nM],other results
COc1ccc(Oc2nc(-c3cncc(C#N)c3)ncc2NC[C@H]2C[C@H](N)C2)cc1 [Cpd 301],0.087,1.085,–,–,–,Ki (delta opioid receptor [1]): 0.5 nM; Ki (mu opioid receptor; μ-binding Ki): 658 nM
COc1ccc(Oc2nc(-c3cncc(OC)c3)ncc2N[C@H]2CCCNC2)cc1 [Cpd 245],0.0127,1.095,4.26,–,–,–
COc1ccc(Oc2nc(-c3cncc(OC)c3)ncc2N[C@H]2CCNC2)cc1 [Cpd 256],0.034,1.004,6.2,–,–,–
Cc1ccc(Oc2nc(-c3cncc(C#N)c3)ncc2NC[C@@H]2CCCN2)cc1 [Cpd 147],0.051,1.077,–,–,–,Ki (delta opioid receptor [1]): 0.4 nM; Ki (mu opioid receptor; μ-binding Ki): 438 nM
COc1ccc(Oc2nc(-c3cncc(SC)c3)ncc2N[C@H]2CCNC2)cc1 [Cpd 255],0.0464,0.997,17.1,–,–,–
COc1ccc(Oc2nc(-c3cncc(C#N)c3)ncc2N2CCNC[C@@H]2C)cc1 [Cpd 345],0.001,1.089,0,0.989,–,EC50 [3]: 1930 nM
COc1ccc(Oc2nc(-c3cncc(OC)c3)ncc2N2CC[C@@H](N)C2)cc1 [Cpd 349],0.082,0.929,0,–,–,–
COc1ccc(-c2ncc(NC[C@@H]3CCCN3)c(Oc3ccc(O)cc3)n2)cn1 [Cpd 59],–,1.0063,–,–,1.54,Ki (delta opioid receptor [4]): 0.954 nM; Ki (mu opioid receptor; read-out: μ-binding Ki): 1610 nM; EC50 (delta opioid receptor [2]; [7]): 0.433 µM; inhibition at 10 µM (delta opioid receptor [2]; read-out: GTPγS δ-opioid receptor % Inh @10 μM): 1.48%
COc1ccc(Oc2nc(-c3cncc(SC)c3)ncc2N[C@H]2CCCNC2)cc1 [Cpd 252],0.025,1.007,2.48,–,–,–
COc1ccc(Oc2nc(-c3cncc(SC)c3)ncc2NC[C@@H]2C[C@@H](F)CN2)cc1 [Cpd 234],0.034,0.987,7.29,0.847,–,–
"N#Cc1cccc(Oc2nc(-c3cccnc3)ncc2NC[C@@H]2CCCN2)c1 [Cpd 135, 3-{2-Pyridin-3-yl-5-[(pyrrolidin-2-(S)-ylmethyl)-amino]-pyrimidin-4-yloxy}-benzonitrile]",–,–,–,–,–,Ki (delta opioid receptor [1]): 2 nM; EC50 (delta opioid receptor [2]; [7]): 1.38 µM
CSc1ccc(Oc2nc(-c3cncc(C#N)c3)ncc2NC[C@@H]2CCCN2)cc1 [Cpd 150],0.033,1.093,–,0.801,–,Ki (delta opioid receptor [1]): 0.3 nM
"COc1ccc(Oc2nc(-c3cccnc3)ncc2N2CCN[C@H](C)C2)cc1 [Cpd 357, 4-(4-Methoxy-phenoxy)-5-[3-(R)-methyl-piperazin-1-yl]-2-pyridin-3-yl-pyrimidine]",0.005,0.929,11.5,–,–,EC50 [3]: 1830 nM
COc1ccc(Oc2nc(-c3cncc(C#N)c3)ncc2N2CCNC(C)C2)cc1 (racemic) [Cpd 343],0.001,1.105,7.29,0.985,–,EC50 [3]: 1980 nM
Fc1cncc(-c2ncc(NC[C@@H]3CCCN3)c(Oc3ccc(Cl)cc3)n2)c1 [Cpd 128],–,1.144,–,–,0.4,EC50 (delta opioid receptor [2]; [7]): 0.453 µM
COc1ccc(Oc2nc(-c3cccnc3)ncc2N2CCNC(C)(C)C2)cc1 [Cpd 355],–,1.002,–,–,–,"GTPγS μ-opioid receptor % Inh @10 μM ([3]; CHO-hMOR cell membranes): 0.000%; EC50 ([3]; CHO-hMOR cell membranes, read-out: GTPγS μ-opioid receptor EC50): 243 nM; EC50 (delta opioid receptor [2]; [7]): 0.022 µM"
COc1ccc(Oc2nc(-c3cncc(SC)c3)ncc2N2CCNCC2)cc1 [Cpd 341],0.041,0.788,0,–,–,–
CC(C)Oc1ccc(Oc2nc(-c3cccnc3)ncc2NC[C@@H]2CCCN2)cc1 [Cpd 141],–,–,–,0.149,3,–
CSc1ccc(Oc2nc(-c3cncnc3)ncc2NC[C@@H]2CCCN2)cc1 [Cpd 151],–,1.121,–,0.704,1,EC50 (delta opioid receptor [2]; [7]): 0.119 µM

Structure (SMILES),EC50 (delta opioid receptor [2]; [5]) [µM],GTPγS δ-opioid receptor Rel Efficacy (delta opioid receptor [2]),inhibition at 10 µM [3] [%],GTPγS δ-RelEfficacy @200 nM (delta opioid receptor [2]),Ki (delta opioid receptor [1]; [6]) [nM],other results
Clc1ccc(Oc2nc(-c3cncnc3)ncc2NC[C@@H]2CCCN2)cc1 [Cpd 130],–,–,–,0.245,2,–
COc1ccc(Oc2nc(-c3cccnc3)ncc2N[C@H]2CCCNC2)cc1 [Cpd 236],0.017,1.042,6.2,1.026,–,–
COc1ccc(Oc2nc(-c3cncc(F)c3)ncc2NC[C@H]2COCCN2)cc1 [Cpd 281],–,–,–,0.221,1,–
COc1ccc(Oc2nc(-c3cc(F)cc(C#N)c3)ncc2NC[C@@H]2CCCN2)cc1 [Cpd 142],–,1.006,–,0.931,0.2,EC50 (delta opioid receptor [2]; [7]): 0.029 µM
COc1ccc(Oc2nc(-c3cncc(SC)c3)ncc2N2CCCNCC2)cc1 [Cpd 347],0.069,0.898,-0.404,–,–,–
COc1ccc(Oc2nc(-c3cccnc3)ncc2N[C@H]2CCNC2)cc1 [Cpd 237],–,–,–,–,–,GTPγS μ-opioid receptor % Inh @10 μM ([3]; CHO-hMOR cell membranes): 3.524%
O=C(c1cccc(Oc2nc(-c3cccnc3)ncc2NC[C@@H]2CCCN2)c1)N1CCCC1 [Cpd 166],–,–,–,0.169,–,Ki (delta opioid receptor [1]): 27 nM
Fc1cncc(-c2ncc(NC[C@@H]3CCCN3)c(Oc3ccc(OCC(F)(F)F)cc3)n2)c1 [Cpd 124],–,–,–,–,–,Ki (delta opioid receptor [4]): 126 nM; Ki (delta opioid receptor [1]): 0.3 nM
COc1ccc(Oc2nc(-c3cncnc3)ncc2NCC2COCCN2)cc1 (racemic) [Cpd 278],–,–,–,0.263,1.64,Ki (delta opioid receptor [4]): 999 nM
COCc1ccc(Oc2nc(-c3cncc(C#N)c3)ncc2NC[C@@H]2CCCN2)cc1 [Cpd 153],–,1.120,–,0.454,1,EC50 (delta opioid receptor [2]; [7]): 0.193 µM
N#Cc1cncc(-c2ncc(NC[C@@H]3CCCN3)c(Oc3ccc(CO)cc3)n2)c1 [Cpd 143],–,1.066,–,–,1,EC50 (delta opioid receptor [2]; [7]): 0.69 µM
O=C(c1cccc(Oc2nc(-c3cccnc3)ncc2NC[C@@H]2CCCN2)c1)N1CCCCC1 [Cpd 167],–,–,–,0.328,21,–
"O=C(Nc1ccc(Oc2nc(-c3cccnc3)ncc2NC[C@@H]2CCCN2)cc1)C1CC1 [Cpd 138, Cyclopropanecarboxylic acid (4-{2-pyridin-3-yl-5-[(pyrrolidin-2-(S)-ylmethyl)-amino]-pyrimidin-4-yloxy}-phenyl)-amide]",–,–,–,–,–,Ki (delta opioid receptor [1]): 4 nM; EC50 (delta opioid receptor [2]; [7]): 1.34 µM
COCc1ccc(Oc2nc(-c3cncnc3)ncc2NC[C@@H]2CCCN2)cc1 [Cpd 154],–,–,–,0.164,–,Ki (delta opioid receptor [1]): 9 nM
COc1ccc(Oc2nc(-c3cncnc3)ncc2NC[C@H]2C[C@H](N)C2)cc1 [Cpd 302],–,–,–,0.393,1,–
COc1ccc(Oc2nc(-c3cncc(C#N)c3)ncc2NC[C@@H](N)CC(C)C)cc1 [Cpd 294],–,–,–,–,6,EC50 (delta opioid receptor [2]; [7]): > 10 µM
COCc1ccc(Oc2nc(-c3cccnc3)ncc2NC[C@@H]2CCCN2)cc1 [Cpd 155],–,–,–,0.170,–,Ki (delta opioid receptor [1]): 5 nM
COc1ccc(Oc2nc(-c3cncc(F)c3)ncc2NC[C@@H]2CCCN2)cc1F [Cpd 131],–,1.063,–,0.819,0.2,EC50 (delta opioid receptor [2]; [7]): 0.076 µM
